Data taken from patent publication US20140322139A1, “STABILIZATION OF X-RAY DIAGNOSTIC COMPOSITION” (GE HEALTHCARE AS, priority 2011, published 2014).

Experiments:
[1] = Physical stability study: visual inspection for crystallisation during storage; type: physicochemical; conditions: conclusion from the storage study of Ioforminol/Visipaque mixtures
Procedure: Formulated Ioforminol (320 mg I/ml) and Visipaque (Iodixanol 320 mg I/ml) were filled on 100 ml glass vials in mixtures with ratios according to Table 1. The filling was performed by using a Flexicon PF5 peristaltic pump. The vials were sealed by closures comprising stoppers and overlying caps. The vials were split into two populations, one that was subjected to heat steam sterilisation at 121° C. (autoclaving) for 20 minutes and one that was used without further treatment.
The autoclaved and non-autoclaved samples of different mixtures were placed on storage at 25, 40 and 60° C. respectively. The samples were subjected to visual inspection weekly for the first 5 weeks before inspection was carried out monthly.

[2] = Dissolution temperature of ioforminol in water for injection; type: physicochemical; conditions: water for injection as the solvent, concentration range 270-380 mg I/ml

| inhibition of primary nucleation [1] | dissolution temperature [2] | SMILES |
| --- | --- | --- |
| potent inhibitor of primary nucleation |  | CC(=O)N(CC(O)CN(C(C)=O)c1c(I)c(C(=O)NCC(O)CO)c(I)c(C(=O)NCC(O)CO)c1I)c1c(I)c(C(=O)NCC(O)CO)c(I)c(C(=O)NCC(O)CO)c1I (centres unmarked) [Iodixanol] |
|  | ~110 °C | O=CN(CC(O)CN(C=O)c1c(I)c(C(=O)NCC(O)CO)c(I)c(C(=O)NCC(O)CO)c1I)c1c(I)c(C(=O)NCC(O)CO)c(I)c(C(=O)NCC(O)CO)c1I (centres unmarked) [Ioforminol, 5-[formyl-[3-[formyl-[3,5-bis(2,3-dihydroxypropylcarbamoyl)-2,4,6-triiodophenyl]amino]-2-hydroxypropyl]amino]-N,N′-bis(2,3-dihydroxypropyl)-2,4,6-triiodobenzene-1,3-dicarboxamide] |
